PubChem BioAssay AID248 (DTP/NCI, 2004)
Toxic doses and inconclusive results are not listed. No stated cut-off is given here; in the data, active means T/C of 150% or more; inactive means T/C below 125%. Square brackets hold non-standard residues; d marks the D form. Peptide text beside a SMILES is read from it. * marks the point of attachment. ξ: configuration not given here. Cbz = O=C(OCc1ccccc1)*; ξT = CC(O)C(N)C(=O)O

Tested on: L1210 leukemia ip in BDF1 mice, survival T/C
Assay: NCI In Vivo Anticancer Drug Screen. Data for tumor model L1210 Leukemia (intraperitoneal) in B6D2F1 (BDF1) mice
Settings: endpoint: mean survival time, higher = longer survival
Method in brief: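 Transplanted-tumor mice were given test agent; controls received vehicle only. Survival readings from the two groups were divided (treated over control).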

[1] = dose: 100.0 mg/kg/injection, schedule: Q01DX001 (ip), vehicle: saline
[2] = dose: 200.0 mg/kg/injection, schedule: Q01DX001 (ip), vehicle: saline
[3] = dose: 100.0 mg/kg/injection, schedule: Q04DX003 (ip), vehicle: saline with Tween-80
[4] = dose: 200.0 mg/kg/injection, schedule: Q04DX003 (ip), vehicle: saline with Tween-80
[5] = dose: 400.0 mg/kg/injection, schedule: Q04DX003 (ip), vehicle: saline with Tween-80
[6] = dose: 100.0 mg/kg/injection, schedule: Q01DX009 (ip), vehicle: Klucel (hydroxypropylcellulose) (HPC)
[7] = dose: 100.0 mg/kg/injection, schedule: Q04DX003 (ip), vehicle: Klucel (hydroxypropylcellulose) (HPC)
[8] = dose: 200.0 mg/kg/injection, schedule: Q01DX009 (ip), vehicle: Klucel (hydroxypropylcellulose) (HPC)
[9] = dose: 200.0 mg/kg/injection, schedule: Q04DX003 (ip), vehicle: Klucel (hydroxypropylcellulose) (HPC)
[10] = dose: 100.0 mg/kg/injection, schedule: Q04DX003 (ip), vehicle: saline
[11] = dose: 400.0 mg/kg/injection, schedule: Q01DX001 (ip), vehicle: saline
[12] = dose: 100.0 mg/kg/injection, schedule: Q01DX009 (ip), vehicle: saline with Tween-80
[13] = dose: 200.0 mg/kg/injection, schedule: Q01DX009 (ip), vehicle: saline with Tween-80
[14] = dose: 400.0 mg/kg/injection, schedule: Q01DX009 (ip), vehicle: saline with Tween-80

Measured: T/C

O=C(O)c1ccc(/C=N/Nc2nnc(N/N=C/c3ccc(C(=O)O)cc3)c3ccccc23)cc1
inactive: dose: 50.0 mg/kg/injection, schedule: Q01DX001 (ip), vehicle: carboxymethylcellulose (CMC) 113 % of control | dose: 100.0 mg/kg/injection, schedule: Q01DX001 (ip), vehicle: carboxymethylcellulose (CMC) 113 % of control | dose: 200.0 mg/kg/injection, schedule: Q01DX001 (ip), vehicle: carboxymethylcellulose (CMC) 107 % of control | dose: 400.0 mg/kg/injection, schedule: Q01DX001 (ip), vehicle: carboxymethylcellulose (CMC) 104 % of control

Nc1ncnc(N)c1N
inactive: dose: 100.0 mg/kg/injection, schedule: Q01DX001 (ip), vehicle: saline with Tween-80 104 % of control | dose: 200.0 mg/kg/injection, schedule: Q01DX001 (ip), vehicle: saline with Tween-80 105 % of control | dose: 400.0 mg/kg/injection, schedule: Q01DX001 (ip), vehicle: saline with Tween-80 98 % of control

NCCSSSSCCN
inactive: [1] 96 % of control | [2] 105 % of control

O=C(NCc1ccccc1)C1C2C=CC(C2)C1C(=O)NCc1ccccc1 (centres undefined)
inactive: [3] 96 % of control | [4] 91 % of control | [5] 91 % of control

C=C(C)CN1C(=O)c2ccccc2C1=O
inactive: dose: 25.0 mg/kg/injection, schedule: Q01DX009 (ip), vehicle: gum acacia 94 % of control | dose: 50.0 mg/kg/injection, schedule: Q01DX009 (ip), vehicle: gum acacia 96 % of control | dose: 100.0 mg/kg/injection, schedule: Q01DX009 (ip), vehicle: gum acacia 88 % of control | dose: 100.0 mg/kg/injection, schedule: Q04DX003 (ip), vehicle: gum acacia 108 % of control | dose: 200.0 mg/kg/injection, schedule: Q04DX003 (ip), vehicle: gum acacia 97 % of control | dose: 400.0 mg/kg/injection, schedule: Q04DX003 (ip), vehicle: gum acacia 93 % of control

CCOC(=O)/C=C(/C)OC(C)=O
inactive: [6] 100 % of control | [7] 101 % of control | [8] 98 % of control | [9] 95 % of control | dose: 400.0 mg/kg/injection, schedule: Q01DX009 (ip), vehicle: Klucel (hydroxypropylcellulose) (HPC) 100 % of control | dose: 400.0 mg/kg/injection, schedule: Q04DX003 (ip), vehicle: Klucel (hydroxypropylcellulose) (HPC) 95 % of control

O=C(O)c1ccc([N+](=O)[O-])cc1C(=O)O
inactive: dose: 87.5 mg/kg/injection, schedule: Q01DX001 (ip), vehicle: saline 104 % of control | dose: 100.0 mg/kg/injection, schedule: Q01DX009 (ip), vehicle: saline 100 % of control | [7] 96 % of control | dose: 175.0 mg/kg/injection, schedule: Q01DX001 (ip), vehicle: saline 100 % of control | dose: 200.0 mg/kg/injection, schedule: Q01DX009 (ip), vehicle: saline 93 % of control | [9] 87 % of control | dose: 350.0 mg/kg/injection, schedule: Q01DX001 (ip), vehicle: saline 108 % of control

CC(SCc1cc(=O)[nH]c(=O)[nH]1)C(=O)O (centres undefined)
inactive: [10] 98 % of control | dose: 200.0 mg/kg/injection, schedule: Q04DX003 (ip), vehicle: saline 98 % of control | dose: 400.0 mg/kg/injection, schedule: Q04DX003 (ip), vehicle: saline 96 % of control

CC(C)(CN)CCBr
inactive: dose: 50.0 mg/kg/injection, schedule: Q01DX001 (ip), vehicle: saline 95 % of control | [1] 88 % of control | [2] 101 % of control | [11] 92 % of control

COC(=O)C(NC(=O)CNC(=O)OCc1ccccc1)C(C)O (stereo not drawn) (Cbz-Gly-[ξT]-OMe)
inactive: [3] 98 % of control | [4] 96 % of control | [5] 93 % of control

CC(=O)Oc1cc([N+](=O)[O-])ccc1C(=O)O
inactive: [3] 96 % of control | [4] 91 % of control | [5] 94 % of control

O=C(NCCCCOc1ccc([N+](=O)[O-])cc1Cl)c1ccc(S(=O)(=O)F)cc1
inactive: [12] 93 % of control | [3] 92 % of control | [13] 93 % of control | [4] 93 % of control | [14] 100 % of control | [5] 111 % of control

O=C(C#Cc1ccccc1)/C=C/c1ccccc1
inactive: [7] 88 % of control | [9] 98 % of control

CC1CC=CCC1/C=N/NC(N)=O (centres undefined)
inactive: dose: 100.0 mg/kg/injection, schedule: Q01DX001 (ip), vehicle: Klucel (hydroxypropylcellulose) (HPC) 107 % of control | dose: 200.0 mg/kg/injection, schedule: Q01DX001 (ip), vehicle: Klucel (hydroxypropylcellulose) (HPC) 104 % of control | dose: 400.0 mg/kg/injection, schedule: Q01DX001 (ip), vehicle: Klucel (hydroxypropylcellulose) (HPC) 98 % of control

C/C(CCO)=N/N=C(N)N
inactive: dose: 15.0 mg/kg/injection, schedule: Q01DX Z (ip), vehicle: methylcellulose (MC) 97 % of control | dose: 30.0 mg/kg/injection, schedule: Q01DX Z (ip), vehicle: methylcellulose (MC) 109 % of control | dose: 30.0 mg/kg/injection, schedule: Q01DX Z (oral), vehicle: methylcellulose (MC) 97 % of control | dose: 60.0 mg/kg/injection, schedule: Q01DX Z (oral), vehicle: methylcellulose (MC) 100 % of control

O=P(CCCCCCCCCCP(=O)(c1ccccc1)c1ccccc1)(c1ccccc1)c1ccccc1
inactive: [1] 91 % of control | [2] 92 % of control | [11] 92 % of control

CC(=O)NCCc1ccc(N)cc1
inactive: [1] 108 % of control | [2] 101 % of control | [11] 98 % of control

Cc1ccc(OC/C=C/CS(=O)(=O)c2ccc(C)cc2)cc1
inactive: dose: 50.0 mg/kg/injection, schedule: Q01DX009 (ip), vehicle: Klucel (hydroxypropylcellulose) (HPC) 100 % of control | dose: 75.0 mg/kg/injection, schedule: Q01DX001 (ip), vehicle: Klucel (hydroxypropylcellulose) (HPC) 93 % of control | [6] 98 % of control | dose: 150.0 mg/kg/injection, schedule: Q01DX001 (ip), vehicle: Klucel (hydroxypropylcellulose) (HPC) 98 % of control | [8] 98 % of control | dose: 300.0 mg/kg/injection, schedule: Q01DX001 (ip), vehicle: Klucel (hydroxypropylcellulose) (HPC) 95 % of control

CCOC(=O)/C(=C\c1ccccn1)C(C)=O
inactive: dose: 25.0 mg/kg/injection, schedule: Q04DX003 (ip), vehicle: saline 102 % of control | dose: 50.0 mg/kg/injection, schedule: Q04DX003 (ip), vehicle: saline 102 % of control | [10] 102 % of control

CCS(=O)(=O)c1ccc(NC(=O)OC2CCCC2)cc1
inactive: dose: 100.0 mg/kg/injection, schedule: Q01DX001 (ip), vehicle: other 100 % of control | dose: 200.0 mg/kg/injection, schedule: Q01DX001 (ip), vehicle: other 96 % of control | dose: 400.0 mg/kg/injection, schedule: Q01DX001 (ip), vehicle: other 89 % of control

C/C=C1/C[N+]2(C)CCC34C(=C(C(=O)OC)C1CC32)Nc1ccc(O)cc14 (centres undefined)
inactive: dose: 6.25 mg/kg/injection, schedule: Q01DX001 (ip), vehicle: saline with Tween-80 97 % of control | dose: 12.5 mg/kg/injection, schedule: Q01DX001 (ip), vehicle: saline with Tween-80 102 % of control | dose: 25.0 mg/kg/injection, schedule: Q01DX001 (ip), vehicle: saline with Tween-80 96 % of control

NOCc1csc(NC(=O)Nc2ccccc2)n1
inactive: dose: 18.8 mg/kg/injection, schedule: Q01DX009 (ip), vehicle: saline with Tween-80 95 % of control | dose: 37.5 mg/kg/injection, schedule: Q01DX009 (ip), vehicle: saline with Tween-80 103 % of control | dose: 75.0 mg/kg/injection, schedule: Q01DX009 (ip), vehicle: saline with Tween-80 105 % of control

CCCCSC(N)=O
inactive: [12] 103 % of control | dose: 100.0 mg/kg/injection, schedule: Q04DX002 (ip), vehicle: Klucel (hydroxypropylcellulose) (HPC) 94 % of control | [13] 105 % of control | dose: 200.0 mg/kg/injection, schedule: Q04DX002 (ip), vehicle: Klucel (hydroxypropylcellulose) (HPC) 97 % of control | [14] 119 % of control | dose: 400.0 mg/kg/injection, schedule: Q04DX002 (ip), vehicle: Klucel (hydroxypropylcellulose) (HPC) 90 % of control
